Data reported in patent US9833497B2, “Human originated EGF domain proteins and use of the same” (CHENGDU SOURCEBIO LIMITED-LIABILITY COMPANY, priority 2013, dated 2017).

What was measured:
Format in all cases: cell-based
E. coli DH5α = assay: Antibacterial activity: MIC and growth curve against E. coli DH5α in 96-well plate; settings: minimal inhibitory concentration against E. coli DH5α; 96-well plate, 5×10^5 CFU/mL, 37° C., judged after 8 h
In short: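 Log-phase DH5α (OD600 about 0.5, 37° C, 185 rpm in LB) was pelleted, resuspended in fresh LB and seeded at 5×10^5 CFU/mL with recombinant protein at 50, 25 and 12.5 μg/mL (two-fold series), in triplicate. Plates were shaken at 175 rpm, 37° C, and OD600 was read every 30 min. MIC was the lowest concentration with no growth.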

E. coli BL21 = assay: MIC against Gram-negative bacteria: E. coli BL21; settings: 5×10^5 CFU/mL
In short: (§1)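 Growth inhibition by human EGF domain proteins was scored in LB liquid culture seeded at 5×10^5 CFU/mL. Protein was applied as a two-fold dilution series in triplicate, with shaking incubation at 37° C; MIC is the lowest concentration giving no growth.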

Pseudomonas aeruginosa = assay: MIC against Gram-negative bacteria: Pseudomonas aeruginosa; settings: 5×10^5 CFU/mL
In short: as §1

Klebsiella pneumonia = assay: MIC against Gram-negative bacteria: Klebsiella pneumonia; settings: 5×10^5 CFU/mL
In short: as §1

Enterobacter cloacae = assay: MIC against Gram-negative bacteria: Enterobacter cloacae; settings: 5×10^5 CFU/mL
In short: as §1

Aeromonas hydrophila = assay: MIC against Gram-negative bacteria: Aeromonas hydrophila; settings: 5×10^5 CFU/mL
In short: as §1

Citrobacter diversus = assay: MIC against Gram-negative bacteria: Citrobacter diversus; settings: 5×10^5 CFU/mL
In short: as §1

Moraxella catarrhalis = assay: MIC against Gram-negative bacteria: Moraxella catarrhalis; settings: 5×10^5 CFU/mL
In short: as §1

Proteus mirabilis = assay: MIC against Gram-negative bacteria: Proteus mirabilis; settings: 5×10^5 CFU/mL
In short: as §1

Proteus vulgaris = assay: MIC against Gram-negative bacteria: Proteus vulgaris; settings: 5×10^5 CFU/mL
In short: as §1

Serratia marcescens = assay: MIC against Gram-negative bacteria: Serratia marcescens; settings: 5×10^5 CFU/mL
In short: as §1

[1] = E. coli BL21, 10 h cultivation at 37° C.
[2] = P. aeruginosa, 10 h cultivation at 37° C.
[3] = K. pneumonia, 10 h cultivation at 37° C.
[4] = E. cloacae, 10 h cultivation at 37° C.
[5] = A. hydrophila, 10 h cultivation at 37° C.
[6] = C. diversus, 10 h cultivation at 37° C.
[7] = M. catarrhalis, 10 h cultivation at 37° C.
[8] = P. mirabilis, 10 h cultivation at 37° C.
[9] = P. vulgaris, 10 h cultivation at 37° C.
[10] = S. marcescens, 10 h cultivation at 37° C.

Substance	MIC (E. coli DH5α) [µg/mL]	MIC (μg/mL) E. coli BL21 (E. coli BL21; [1]) [µg/mL]	MIC (μg/mL) P. aeruginosa (Pseudomonas aeruginosa; [2]) [µg/mL]	MIC (μg/mL) K. pneumonia (Klebsiella pneumonia; [3]) [µg/mL]	MIC (μg/mL) E. cloacae (Enterobacter cloacae; [4]) [µg/mL]	MIC (μg/mL) A. hydrophila (Aeromonas hydrophila; [5]) [µg/mL]	MIC (μg/mL) C. diversus (Citrobacter diversus; [6]) [µg/mL]	MIC (μg/mL) M. catarrhalis (Moraxella catarrhalis; [7]) [µg/mL]	MIC (μg/mL) P. mirabilis (Proteus mirabilis; [8]) [µg/mL]	MIC (μg/mL) P. vulgaris (Proteus vulgaris; [9]) [µg/mL]	MIC (μg/mL) S. marcescens (Serratia marcescens; [10]) [µg/mL]	MIC E. coli BL21 (E. coli BL21; 96-well plate, 37° C., 10 h) [µg/mL]	MIC P. aeruginosa (Pseudomonas aeruginosa; 96-well plate, 37° C., 10 h) [µg/mL]	MIC K. pneumonia (Klebsiella pneumonia; 96-well plate, 37° C., 10 h) [µg/mL]	MIC E. cloacae (Enterobacter cloacae; 96-well plate, 37° C., 10 h) [µg/mL]	MIC A. hydrophila (Aeromonas hydrophila; 96-well plate, 37° C., 10 h) [µg/mL]	MIC C. diversus (Citrobacter diversus; 96-well plate, 37° C., 10 h) [µg/mL]	MIC M. catarrhalis (Moraxella catarrhalis; 96-well plate, 37° C., 10 h) [µg/mL]	MIC P. mirabilis (Proteus mirabilis; 96-well plate, 37° C., 10 h) [µg/mL]	MIC P. vulgaris (Proteus vulgaris; 96-well plate, 37° C., 10 h) [µg/mL]	also measured
PRT1363 (SEKRCPADCHNRGRCVDGRCECDDGFTGADCG; listed as Homo sapiens)	12.5																				MIC against E. coli BL21 (E. coli BL21; [1]): 12.5 µg/mL; MIC against P. aeruginosa (Pseudomonas aeruginosa; Pseudomonas aeruginosa, 10 h cultivation at 37° C.): 12.5 µg/mL; MIC against K. pneumonia (Klebsiella pneumonia; Klebsiella pneumonia, 10 h cultivation at 37° C.): 12.5 µg/mL; MIC against E. cloacae (Enterobacter cloacae; Enterobacter cloacae, 10 h cultivation at 37° C.): 50 µg/mL; MIC against A. hydrophila (Aeromonas hydrophila; Aeromonas hydrophila, 10 h cultivation at 37° C.): 12.5 µg/mL; MIC against C. diversus (Citrobacter diversus; Citrobacter diversus, 10 h cultivation at 37° C.): 25 µg/mL; MIC against M. catarrhalis (Moraxella catarrhalis; Moraxella catarrhalis, 10 h cultivation at 37° C.): 50 µg/mL; MIC against P. mirabilis (Proteus mirabilis; Proteus mirabilis, 10 h cultivation at 37° C.): 25 µg/mL; MIC against P. vulgaris (Proteus vulgaris; Proteus vulgaris, 10 h cultivation at 37° C.): 12.5 µg/mL; MIC against S. marcescens (Serratia marcescens; Serratia marcescens, 10 h cultivation at 37° C.): 50 µg/mL
PRT222 (DVDECAQALHDCRPSQDCHNLPGSYQCTCPDGYRKIGPECV; listed as Homo sapiens)	50	12.5	12.5	12.5	25	12.5	25	12.5	25	12.5	25										
PRT663 (DVNECDDLNGPAVLCVHGYCENTEGSYRCHCSPGYVAEAGPPHCT; listed as Homo sapiens)	100											25	50	25	12.5	25	50	12.5	25	50	MIC S. marcescens (Serratia marcescens; 96-well plate, 37° C., 10 h): 12.5 µg/mL
PRT128 (CLPSYCEHGGECSQSWDTFSCDCLGTGYTGETC; listed as Homo sapiens)	12.5																				MIC (μg/mL) E. coli BL21 (E. coli BL21; E. coli BL21, 96-well plate, 37° C., 10 h): 25 µg/mL; MIC (μg/mL) P. aeruginosa (Pseudomonas aeruginosa; Pseudomonas aeruginosa, 96-well plate, 37° C., 10 h): 12.5 µg/mL; MIC (μg/mL) K. pneumonia (Klebsiella pneumonia; Klebsiella pneumonia, 96-well plate, 37° C., 10 h): 25 µg/mL; MIC (μg/mL) E. cloacae (Enterobacter cloacae; Enterobacter cloacae, 96-well plate, 37° C., 10 h): 12.5 µg/mL; MIC (μg/mL) A. hydrophila (Aeromonas hydrophila; Aeromonas hydrophila, 96-well plate, 37° C., 10 h): 12.5 µg/mL; MIC (μg/mL) C. diversus (Citrobacter diversus; Citrobacter diversus, 96-well plate, 37° C., 10 h): 12.5 µg/mL; MIC (μg/mL) M. catarrhalis (Moraxella catarrhalis; Moraxella catarrhalis, 96-well plate, 37° C., 10 h): 12.5 µg/mL; MIC (μg/mL) P. mirabilis (Proteus mirabilis; Proteus mirabilis, 96-well plate, 37° C., 10 h): 12.5 µg/mL; MIC (μg/mL) P. vulgaris (Proteus vulgaris; Proteus vulgaris, 96-well plate, 37° C., 10 h): 12.5 µg/mL; MIC (μg/mL) S. marcescens (Serratia marcescens; Serratia marcescens, 96-well plate, 37° C., 10 h): 50 µg/mL
PRT595 (CSCHASGVSPMECPPGGGACLCDPVTGACPCLPNVTGLACDRCADGYWNLVPGRGCQS; listed as Homo sapiens)	12.5											50	12.5	50	12.5	50	12.5	50	12.5	50	MIC S. marcescens (Serratia marcescens; 96-well plate, 37° C., 10 h): 25 µg/mL
PRT195 (MGYNCNATTKCKGKGICNNFGNCQCFPGHRPPDCK; listed as Homo sapiens)	25	12.5	50	50	12.5	50	12.5	25	50	25	12.5										
